According to ChEMBL document CHEMBL1145083, “Novel estrogen receptor ligands based on an anthranylaldoxime structure: role of the phenol-type pseudocycle in the binding process” (J Med Chem, 2003):
“And” between values parts separate entries of the source, which are not always exact repeats. Equal values may be shown once.

Columns and labels:
Estrogen receptor beta [1] = target: T1, Estrogen receptor beta (Homo sapiens, UniProt Q92731); test: Antagonist effect on transcriptional activation in HEC-1 cells expressing Estrogen receptor beta at 10e-6 M against 10e-9 M estradiol; type: functional, cell-based
Estrogen receptor beta [2] = target: T1, Estrogen receptor beta; test: Agonist effect on transcriptional activation in HEC-1 cells expressing Estrogen receptor beta at 10e-8 M; type: functional, cell-based
Estrogen receptor = target: T2, Estrogen receptor (Homo sapiens, UniProt P03372)
T2 sequence (P03372 whole entry): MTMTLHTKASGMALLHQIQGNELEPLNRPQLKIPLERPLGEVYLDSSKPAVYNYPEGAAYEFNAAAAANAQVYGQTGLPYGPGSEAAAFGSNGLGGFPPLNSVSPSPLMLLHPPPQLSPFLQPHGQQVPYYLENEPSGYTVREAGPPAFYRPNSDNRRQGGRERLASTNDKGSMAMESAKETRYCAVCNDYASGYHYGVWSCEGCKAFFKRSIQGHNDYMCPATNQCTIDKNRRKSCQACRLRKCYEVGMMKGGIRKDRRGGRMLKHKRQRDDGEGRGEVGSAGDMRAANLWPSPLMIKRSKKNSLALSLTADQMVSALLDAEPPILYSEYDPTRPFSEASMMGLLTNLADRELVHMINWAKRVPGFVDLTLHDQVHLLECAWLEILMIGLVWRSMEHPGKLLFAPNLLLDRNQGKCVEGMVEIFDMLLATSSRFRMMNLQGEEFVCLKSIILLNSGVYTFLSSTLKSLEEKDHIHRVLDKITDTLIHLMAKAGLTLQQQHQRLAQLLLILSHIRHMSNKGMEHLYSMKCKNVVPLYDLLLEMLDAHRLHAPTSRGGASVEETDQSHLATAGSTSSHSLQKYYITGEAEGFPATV

Estrogen receptor beta [3] = target: T1, Estrogen receptor beta

T1 sequence (Q92731 whole entry): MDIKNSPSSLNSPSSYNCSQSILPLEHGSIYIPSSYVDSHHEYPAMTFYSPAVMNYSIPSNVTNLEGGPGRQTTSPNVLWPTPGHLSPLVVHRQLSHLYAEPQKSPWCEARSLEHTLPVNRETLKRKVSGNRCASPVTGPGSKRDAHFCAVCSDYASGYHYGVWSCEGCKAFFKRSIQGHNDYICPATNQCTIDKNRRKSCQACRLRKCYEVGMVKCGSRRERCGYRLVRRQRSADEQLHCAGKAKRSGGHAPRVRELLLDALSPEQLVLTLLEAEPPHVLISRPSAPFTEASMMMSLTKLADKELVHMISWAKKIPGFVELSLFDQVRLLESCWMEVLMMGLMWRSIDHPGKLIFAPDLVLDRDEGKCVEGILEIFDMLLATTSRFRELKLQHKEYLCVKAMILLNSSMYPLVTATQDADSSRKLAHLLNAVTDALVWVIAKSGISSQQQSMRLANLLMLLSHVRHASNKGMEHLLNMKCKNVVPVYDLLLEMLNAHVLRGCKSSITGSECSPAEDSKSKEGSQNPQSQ

| Compound | Efficacy (Estrogen receptor beta [1]) | Efficacy (Estrogen receptor beta [2]) | Ki (Estrogen receptor) | Ki (Estrogen receptor beta [3]) |
| --- | --- | --- | --- | --- |
| Nc1c(/C=N/O)ccc(-c2ccccc2)c1-c1ccccc1 | 31% | 6% and 23% | 2.2 nM | 2.8 nM |
| CCNc1c(/C=N/O)ccc(-c2ccccc2)c1-c1ccccc1 | 85% | 0.94% and 4.9% | 0.47 nM | 0.048 nM |
| O/N=C/c1ccc(-c2ccccc2)c(-c2ccccc2)c1O | 53% | 2.6% and 24% | 1.1 nM | 1.7 nM |
| O/N=C/c1ccc(-c2ccccc2)c(-c2ccccc2)c1 | 69% | 1.3% and 20% | 0.15 nM | 0.27 nM |
| CNc1c(/C=N/O)ccc(-c2ccccc2)c1-c1ccccc1 | 71% | 1.1% and 22% | 3.7 nM | 5.2 nM |
